Measured values as given in patent publication US20170058314A1, “NOVEL METHODOLOGY FOR IDENTIFYING ANTI-PERSISTER ACTIVITY AND ANTIMICROBIAL SUSCEPTIBILITY FOR BORRELIA BURGDORFERI AND OTHER BACTERIA” (priority 2014, published 2017).
Where two headings read alike, the source gives them in different places.

Assays:
[1] = tested on: log phase and stationary phase B. burgdorferi culture; test: Antibiotic exposure assay, SYBR Green I/PI (drugs alone and combinations); conditions: for viability at 10 µg/mL: Borreliella burgdorferi, 168 h, read-out: Live Cell % (residual viable B. burgdorferi), ten-day-old stationary phase culture enriched with micro-colonies, 10 μg/mL each drug, 7 days
Experimental: To qualitatively determine the effect of antibiotics, 10 μL of each compound from the pre-diluted plate or pre-diluted stock was added to stationary phase B. burgdorferi culture in the 96-well plate. The final volume per well was adjusted to 100 μL at a concentration of 10 μg/mL for each antibiotic. Plates were sealed and placed in a 33° C. incubator for 7 days. The SYBR Green I/PI viability assay was used to assess the live and dead cells after antibiotic exposure as described (Feng, Wang, Shi, et al., 2014). Briefly, 10 μL of SYBR Green I (10,000×stock, Invitrogen) was mixed with 30 μL propidium iodide (PI, 20 mM) into 1.0 mL of sterile dH2O. Then, 10 μL of staining mixture was added to each well and mixed thoroughly. The plates were incubated at room temperature in the dark for 15 minutes followed by plate reading at excitation wavelength at 485 nm and the fluorescence intensity at 535 nm (green emission) and 635 nm (red emission) in microplate reader (HTS 7000 plus Bio Assay Reader, PerkinElmer Inc., USA). With least-square fitting analysis, the regression equation and regression curve of the relationship between percentage of live bacteria and green/red fluorescence ratios was obtained. The regression equation was used to calculate the percentage of live cells in each well of the 96-well plate.
To qualitatively determine the effect of antibiotics, 10 μL of each compound (final concentration 50 μM) from the pre-diluted plate or pre-diluted stock was added to round body form or stationary phase B. burgdorferi culture in the 96-well plate. The final volume per well was adjusted to 100 μL. Plates were sealed and placed in a 33° C. incubator for 7 days. The SYBR Green I/PI viability assay was used to assess the live and dead cells after antibiotic exposure as described (Feng, Wang, Shi, et al., 2014). Briefly, 10 μL of SYBR Green I (10,000×stock, Invitrogen) was mixed with 30 μL propidium iodide (PI, 20 mM, Sigma-Aldrich) into 1.0 mL of sterile dH2O. Then, 10 μL staining mixture was added to each well and mixed thoroughly. The plates were incubated at room temperature in the dark for 15 minutes followed by plate reading at excitation wavelength at 485 nm and the fluorescence intensity at 535 nm (green emission) and 635 nm (red emission) in microplate reader (HTS 7000 plus Bio Assay Reader, PerkinElmer Inc., USA). With least-square fitting analysis, the regression equation and regression curve of the relationship between percentage of live and dead bacteria as shown in green/red fluorescence ratios was obtained. The regression equation was used to calculate the percentage of live cells in each well of the 96-well plate.
Round body form and ten day old stationary phase (in brackets) B. burgdorferi culture was treated with 10 μg/mL drugs or their combinations for 7 days. Residual viable B. burgdorferi was calculated according to the regression equation and ratio of Green/Red fluorescence obtained by SYBR Green I/PI assay as described (Feng, Wang, Shi, et al., 2014). Direct microscopy counting was employed to rectify the results of the SYBR Green I/PI assay. […] Abbreviation: Dox, doxcycline; CefP, cefoperazone; DAP, daptomycin; CefM, cefmetazole; Scp, sulfachlorpyridazine; Art, artemisinin; Nft, nitrofurantoin.

[2] = tested on: round body form of B. burgdorferi; test: SYBR Green I/PI assay on amoxicillin-induced round body form; conditions: 10 μg/mL drugs or combinations, 7 days
[3] = tested on: B. burgdorferi (growing, strain B31); test: MIC determination, standard microdilution method; format: cell-based, Borrelia burgdorferi
[4] = tested on: stationary phase B. burgdorferi persisters (strain B31); test: NCI compound library screen, SYBR Green I/PI assay (plate reader); conditions: for Residual viable cells (%) 20 μM (SYBR Green I/PI assay): seven day old stationary phase; for Residual viable cells (%) 20 μM (SYBR Green I/PI assay) / Residual viable cells (SYBR Green I/PI assay): 7 days; for Residual viable cells (SYBR Green I/PI assay): 50 μM, seven day old stationary phase culture; for viability at 50 µM: Borreliella burgdorferi, 168 h
[5] = tested on: stationary phase B. burgdorferi persisters (strain B31); test: NCI compound library rescreen, epifluorescence microscope counting; conditions: for Residual viable cells (%) 20 μM (epifluorescence microscope counting) / Residual viable cells (%) 50 μM (epifluorescence microscope counting): seven day old stationary phase; for Residual viable cells (%) 20 μM (epifluorescence microscope counting) / Residual viable cells (epifluorescence microscope counting) / Residual viable cells (%) 50 μM (epifluorescence microscope counting): 7 days; for Residual viable cells (epifluorescence microscope counting) / Residual viable cells (%) 50 μM (epifluorescence microscope counting): 50 μM; for Residual viable cells (epifluorescence microscope counting): seven day old stationary phase culture; for viability at 50 µM: Borreliella burgdorferi, 168 h
[6] = read-out: Residual viable cells (SYBR Green I/PI assay)
[7] = read-out: Residual viable cells (epifluorescence microscope counting)
[8] = read-out: Activity against persisters (residual viable cell percentage)
[9] = read-out: Residual viable cells (SYBR Green I/PI assay), 50 μM, seven day old stationary phase culture, 7 days

Molecule: Nc1ccc(S(=O)(=O)Nc2ccc(Cl)nn2)cc1 [Scp, sulfachlorpyridazine]
- Live cell %, ten day old stationary phase culture (in brackets) ([1]; 10 μg/mL drugs or combinations, 7 days): 68%
- residual viable / live cells, stated in text for stationary phase B. burgdorferi ([1]; drug combination test, refers to Table 6): about 38%
- Live cell %, round body form [2]: 38%

Molecule: CC[C@@]1(O)C[C@H](O[C@H]2C[C@H](N(C)C)[C@H](O)[C@H](C)O2)c2c(cc3c(c2O)C(=O)c2c(O)ccc(O)c2C3=O)[C@H]1C(=O)OC [NSC267229, Pyrromycin]
- MIC ([3]; growing B. burgdorferi): 0.37 to 0.73 µg/mL
- Residual viable cells (%) 20 μM (SYBR Green I/PI assay) [4]: 6%
- Residual viable cells (SYBR Green I/PI assay) [4]: 0%
- Residual viable cells (%) 20 μM (epifluorescence microscope counting) [5]: 20%
- Residual viable cells (epifluorescence microscope counting) [5]: 21%
- Residual viable cells (%) 50 μM (epifluorescence microscope counting) [5]: 21%
- Activity against persisters (residual viable cell percentage) ([5]; stationary phase persisters): 21%

Molecule: CCN(CC)c1ccc2cc3ccc(=[N+](CC)CC)cc-3oc2c1.[Cl-] [NSC44690, Pyronin B]
- MIC ([3]; growing B. burgdorferi): 1.8 to 3.6 µg/mL

Molecule: CC1COc2c(N3CCN(C)CC3)c(F)cc3c(=O)c(C(=O)O)cn1c23 (stereo not drawn) [Ofl, ofloxacin]
- viability at 10 µg/mL [1]: 81%

Molecule: CO[C@H]1/C=C/O[C@@]2(C)Oc3c(C)c(O)c4c(O)c(c(/C=N/N5CCN(C)CC5)c(O)c4c3C2=O)NC(=O)/C(C)=C\C=C\[C@H](C)[C@H](O)[C@@H](C)[C@@H](O)[C@@H](C)[C@H](OC(C)=O)[C@@H]1C [Rif, rifampin]
- viability at 10 µg/mL [1]: 82%

Molecule: Benzoic acid, 2-hydroxy-, (2,6-pyridinediyldiethylidyne)dihydrazide, nickel complex [NSC617570]
- Residual viable cells (%) 20 μM (SYBR Green I/PI assay) [4]: 66%
- Residual viable cells (SYBR Green I/PI assay) [4]: 44%
- Residual viable cells (%) 20 μM (epifluorescence microscope counting) [5]: 50%
- Residual viable cells (epifluorescence microscope counting) [5]: 38%
- Residual viable cells (%) 50 μM (epifluorescence microscope counting) [5]: 38%

Molecule: O=C1c2ccccc2C(=O)c2c(O)c(NCCNCCO)cc(O)c21 [NSC316157, 9,10-Anthracenedione, 1,4-dihydroxy-2-[[2-[(2-hydroxyethyl)amino]ethyl]amino]-]
- viability at 50 µM [4, 6]: 0%
- viability at 50 µM [5, 7]: 23%

Molecule: COc1cccc2c1C(=O)c1c(O)c3c(c(O)c1C2=O)C[C@@](O)(/C(C)=N\O)C[C@@H]3OC1CC(N)C(O)C(C)O1.Cl (stereo partly drawn) [NSC143491, Daunomycin 3-oxime hydrochloride]
- MIC ([3]; Borreliella burgdorferi, growing B. burgdorferi, read-out: MIC): ≤ 0.36 µg/mL
- viability at 50 µM [4, 6]: 0%
- viability at 50 µM [5, 8]: 6%
- viability at 50 µM [5, 7]: 6%

Molecule: O=c1c(O)c(-c2ccc(O)c(O)c2)oc2cc(O)ccc12 [NSC407010, 2-(3,4-dihydroxyphenyl)-3,7-dihydroxy-4H-1-benzopyran-4-one]
- viability at 50 µM [4, 9]: 39%
- viability at 50 µM [5, 7]: 38%

Molecule: CO[C@@]12[C@H](COC(N)=O)C3=C(C(=O)C(C)=C(N)C3=O)N1C[C@@H]1N[C@@H]12 [NSC26980, Mitomycin]
- MIC ([3]; Borreliella burgdorferi): ≤ 0.21 µg/mL
- MIC ([3]; growing B. burgdorferi): ≦0.21 μg/mL
- viability at 50 µM [4, 9]: 20%
- viability at 50 µM [5, 8]: 25%
- viability at 50 µM [5, 7]: 25%

Molecule: N=C(Nc1nc(-c2ccccn2)cc2ccccc12)c1ccccn1 [NSC637578, N-[3-(2-Pyridyl)isoquinolin-1-yl]-2-pyridinecarboxamidine]
- viability at 50 µM [4, 6]: 46%
- viability at 50 µM [5, 7]: 26%
